From PubChem BioAssay (NCI)
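Following 48 hours of exposure in 96-well plates, responses at five concentrations were used to interpolate endpoints linearly. TGI: total growth inhibition.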

How the values were obtained:
Experiment in all cases: NCI-60 cell line screen, 48 h
MOLT-4 leukemia = system: MOLT-4 leukemia
RPMI-8226 leukemia = system: RPMI-8226 leukemia
SK-OV-3 ovarian = system: SK-OV-3 ovarian
SW-620 colon = system: SW-620 colon
LOX IMVI melanoma = system: LOX IMVI melanoma
U251 CNS = system: U251 CNS
SF-268 CNS = system: SF-268 CNS
IGROV1 ovarian = system: IGROV1 ovarian
SK-MEL-2 melanoma = system: SK-MEL-2 melanoma
OVCAR-3 ovarian = system: OVCAR-3 ovarian
KM12 colon = system: KM12 colon
PC-3 prostate = system: PC-3 prostate
HCT-116 colon = system: HCT-116 colon
M14 melanoma = system: M14 melanoma
MDA-MB-231 breast = system: MDA-MB-231 breast
MALME-3M melanoma = system: MALME-3M melanoma
TK-10 renal = system: TK-10 renal
SNB-19 CNS = system: SNB-19 CNS
EKVX NSCLC = system: EKVX NSCLC
HL-60(TB) leukemia = system: HL-60(TB) leukemia
UO-31 renal = system: UO-31 renal
NCI-H460 lung = system: NCI-H460 lung
MCF7 breast = system: MCF7 breast
NCI-H522 lung = system: NCI-H522 lung
SR leukemia = system: SR leukemia
A549 NSCLC = system: A549 NSCLC
NCI-H23 lung = system: NCI-H23 lung
NCI-H226 lung = system: NCI-H226 lung
OVCAR-8 ovarian = system: OVCAR-8 ovarian
SN12C renal = system: SN12C renal
SK-MEL-5 melanoma = system: SK-MEL-5 melanoma
NCI/ADR-RES ovarian = system: NCI/ADR-RES ovarian
UACC-62 melanoma = system: UACC-62 melanoma
K-562 leukemia = system: K-562 leukemia
ACHN renal = system: ACHN renal
SF-295 CNS = system: SF-295 CNS
CCRF-CEM leukemia = system: CCRF-CEM leukemia
BT-549 breast = system: BT-549 breast
CAKI-1 renal = system: CAKI-1 renal
COLO 205 colon = system: COLO 205 colon
MDA-N = system: MDA-N
UACC-257 melanoma = system: UACC-257 melanoma
HT29 colon = system: HT29 colon
MDA-MB-435 = system: MDA-MB-435
HCT-15 colon = system: HCT-15 colon
SF-539 CNS = system: SF-539 CNS
RXF 393 renal = system: RXF 393 renal
DU-145 prostate = system: DU-145 prostate
OVCAR-5 ovarian = system: OVCAR-5 ovarian
HCC-2998 colon = system: HCC-2998 colon
A498 renal = system: A498 renal
786-0 renal = system: 786-0 renal
SK-MEL-28 melanoma = system: SK-MEL-28 melanoma
OVCAR-4 ovarian = system: OVCAR-4 ovarian
HS 578T breast = system: HS 578T breast
HOP-62 NSCLC = system: HOP-62 NSCLC

Structure (SMILES): Oc1ccc(-c2nc3ccc(Br)cc3s2)cc1
- TGI (MOLT-4 leukemia): > 100 µM
- TGI (RPMI-8226 leukemia): 40.2 µM
- TGI (SK-OV-3 ovarian): 51.4 µM
- TGI (SW-620 colon): > 100 µM
- TGI (LOX IMVI melanoma): 30.1 µM
- TGI (U251 CNS): 50.8 µM
- TGI (SF-268 CNS): 57.4 µM
- TGI (IGROV1 ovarian): 33.6 µM
- TGI (SK-MEL-2 melanoma): 33.3 µM
- TGI (OVCAR-3 ovarian): 31.8 µM
- TGI (KM12 colon): 41.6 µM
- TGI (PC-3 prostate): 54.8 µM
- TGI (HCT-116 colon): 64.1 µM
- TGI (M14 melanoma): 39.6 µM
- TGI (MDA-MB-231 breast): 45 µM
- TGI (MALME-3M melanoma): 90.9 µM
- TGI (TK-10 renal): 35.9 µM
- TGI (SNB-19 CNS): 85.2 µM
- TGI (EKVX NSCLC): 28.6 µM
- TGI (HL-60(TB) leukemia): 56.3 µM
- TGI (UO-31 renal): 44.4 µM
- TGI (NCI-H460 lung): 52.8 µM
- TGI (MCF7 breast): 74.5 µM
- TGI (NCI-H522 lung): 22.9 µM
- TGI (SR leukemia): 36.2 µM
- TGI (A549 NSCLC): 68.9 µM
- TGI (NCI-H23 lung): 76 µM
- TGI (NCI-H226 lung): 39.9 µM
- TGI (OVCAR-8 ovarian): 49.3 µM
- TGI (SN12C renal): 49.6 µM
- TGI (SK-MEL-5 melanoma): 60.2 µM
- TGI (NCI/ADR-RES ovarian): 67.3 µM
- TGI (UACC-62 melanoma): 27.4 µM
- TGI (K-562 leukemia): 73.1 µM
- TGI (ACHN renal): 62.8 µM
- TGI (SF-295 CNS): 33 µM
- TGI (CCRF-CEM leukemia): 16.5 µM
- TGI (BT-549 breast): 44.7 µM
- TGI (CAKI-1 renal): 33.7 µM
- TGI (COLO 205 colon): 33.7 µM
- TGI (MDA-N): > 100 µM
- TGI (UACC-257 melanoma): 51.1 µM
- TGI (HT29 colon): 50.5 µM
- TGI (MDA-MB-435): 53.4 µM
- TGI (HCT-15 colon): 67.5 µM
- TGI (SF-539 CNS): 35.8 µM
- TGI (RXF 393 renal): > 100 µM
- TGI (DU-145 prostate): 36.7 µM
- TGI (OVCAR-5 ovarian): 63.8 µM

Structure (SMILES): c1ccc2c3[nH]c(c2c1)=Nc1ccc(cc1)-c1nc2cc(ccc2o1)N=c1[nH]c(c2ccccc12)=Nc1ccc2nc(oc2c1)-c1ccc(cc1)N=3
- TGI (MOLT-4 leukemia): > 100 µM
- TGI (SW-620 colon): > 100 µM
- TGI (LOX IMVI melanoma): > 100 µM
- TGI (U251 CNS): > 100 µM
- TGI (SF-268 CNS): > 100 µM
- TGI (IGROV1 ovarian): > 100 µM
- TGI (KM12 colon): > 100 µM
- TGI (PC-3 prostate): > 100 µM
- TGI (HCT-116 colon): > 100 µM
- TGI (HCC-2998 colon): > 100 µM
- TGI (M14 melanoma): > 100 µM
- TGI (SNB-19 CNS): > 100 µM
- TGI (EKVX NSCLC): > 100 µM
- TGI (HL-60(TB) leukemia): > 100 µM
- TGI (UO-31 renal): > 100 µM
- TGI (NCI-H460 lung): > 100 µM
- TGI (MCF7 breast): > 100 µM
- TGI (NCI-H522 lung): > 100 µM
- TGI (SR leukemia): > 100 µM
- TGI (A498 renal): > 100 µM
- TGI (NCI-H23 lung): > 100 µM
- TGI (SN12C renal): > 100 µM
- TGI (SK-MEL-5 melanoma): > 100 µM
- TGI (NCI/ADR-RES ovarian): > 100 µM
- TGI (786-0 renal): > 100 µM
- TGI (UACC-62 melanoma): > 100 µM
- TGI (K-562 leukemia): > 100 µM
- TGI (SK-MEL-28 melanoma): > 100 µM
- TGI (ACHN renal): > 100 µM
- TGI (SF-295 CNS): > 100 µM
- TGI (OVCAR-4 ovarian): > 100 µM
- TGI (CCRF-CEM leukemia): > 100 µM
- TGI (BT-549 breast): > 100 µM
- TGI (HS 578T breast): > 100 µM
- TGI (HOP-62 NSCLC): > 100 µM
- TGI (CAKI-1 renal): > 100 µM
- TGI (COLO 205 colon): > 100 µM
- TGI (MDA-N): > 100 µM
- TGI (UACC-257 melanoma): > 100 µM
- TGI (HT29 colon): > 100 µM
- TGI (MDA-MB-435): > 100 µM
- TGI (HCT-15 colon): > 100 µM
- TGI (RXF 393 renal): > 100 µM
- TGI (DU-145 prostate): > 100 µM
- TGI (OVCAR-5 ovarian): > 100 µM
